For test [1], the target named is human mu (MOR) opioid receptor (Homo sapiens (Human), UniProt P35372). Kind of test: Radioligand competition binding assay, mu opioid receptor. The note with it: [3H]Naloxone; for inhibition at 10 µM: read-out: Mu receptor % inhibition at single concentration. As to the method: The binding affinities of certain compounds of the present invention were evaluated using radioligand binding assays in membranes prepared from CHO-K1 cells expressing recombinant human kappa (KOR) or mu (MOR) opioid receptors.
Competition binding experiments were conducted by incubating membrane protein to equilibrium in triplicate in the presence of a fixed concentration of radioligand and increasing concentrations of test compound for evaluation of binding to KOR or single concentration (10 μM) of test compound for evaluation of binding to MOR in 101 μL final volume. The radioligands used were specific for each receptor type, and the assay conditions are described in Table 1. Following incubations, the membranes were rapidly filtered through GF/B filter plate (presoaked with 0.5% polyethyleneimine), washed five times with cold 50 mM Tris-HCl, pH 7.5, and the bound radioactivity was then measured by liquid scintillation counting. Non-specific binding was measured in the presence of excess ligand; this value was subtracted from the total binding to yield the specific binding at each test concentration.
Ki (affinity of test compound) was obtained using the Cheng Prusoff correction using experimental Kd (affinity of radioligand) values that were previously determined under these assay conditions. For MOR binding, compounds were tested at one concentration, 10 μM, to evaluate its ability to inhibit specific radioligand binding. The values are expressed as percent inhibition of specific binding and greater than 50% inhibition of binding was considered to be significant.
With respect to determining MOR binding, an approach similar to one used for KOR binding was used.
In general terms: Loss of bound radioactivity is the signal in a displacement assay; it reports binding, not function.

Test [2] deals with acetic acid-induced writhing (visceral pain) in mice. As to the kind of experiment: Acetic acid writhing (AAW) analgesic assay. The format is in vivo. As to the method: An analgesic assay was used to determine whether a given compound can reduce and/or prevent visceral pain in mice. The assay utilizes Swiss Albino or CD-1 male mice (5-10 mice per group), each mouse being approximately 0.015-0.030 kg on the study day. Mice were treated according to standard protocols.
The animal was given an intraperitoneal (IP) injection of an irritant (acetic acid) that induces “writhing” which may include: contractions of the abdomen, twisting and turning of the trunk, arching of the back and the extension of the hindlimbs. Mice are given a single IP injection (0.1 mL/10 g bodyweight) of a 0.5% acetic acid solution. After the injection the animals were returned to their observation enclosure and their behavior was observed. Contractions were counted between 0 and 20 minutes after the injection. The animals were used once. In certain instances, the test articles were administered at multiple doses to determine a dose response curve.
Table 4 provides the results for certain compounds of the present invention that were administered subcutaneously. Table 5 provides the results for certain compounds of the present invention that were administered orally.
On the technique in general: In writhing tests, fewer writhes than in controls are read as antinociception.

The target in the next test is MOR (Homo sapiens (Human), UniProt P35372). As to the kind of experiment: cAMP accumulation assay in forskolin-stimulated CHO-K1 cells stably expressing MOR. The format is cell-based. As to the method: Inhibition of cAMP accumulation by select compounds was measured in forskolin-stimulated CHO-K1 cells stably expressing KOR. CHO-K1 cells stably expressing KOR were harvested using Invitrogen Cell Dissociation Buffer, and then centrifuged at 1200 rpm for five minutes. The supernatant was aspirated and cells were resuspended in assay buffer to a density of 4×10^5 cells/mL. 25 μL of cells were added into a white half-area 96 well plate. Fourteen point serial dilutions of test compounds were carried out in assay buffer (PBS with 0.5 mM IBMX). Ketazocine was used as a positive control for each assay. 12.5 μL of compound was added to the cells in duplicate for each test concentration. The cells were then stimulated with 12.5 μL forskolin at a final concentration 20 μM. Cells were incubated for 45 minutes in a 37° C., 5% CO2 water jacketed incubator. CisBio HTRF cAMP assay reagent was used for cAMP quantitation. Two hours after substrate addition, signal at 665/615 nm was measured using the Perkin Elmer Victor X4 HTRF reader. Data analysis was done using GraphPad Prism, sigmoidal dose-response (variable slope) curve fitting.
Using a similar approach, inhibition of cAMP accumulation by select compounds was also determined in forskolin-simulated CHO-K1 cells stably expressing MOR (wherein for this assay a density of 8×10^5 cells/mL was used and the positive control was DAMGO). […]

With `COCCOCCOCCOCCOCCOCCOCCNc1ccc2c(c1)[C@]1(C)CCN(CC3CC3)[C@H](C2=O)[C@@H]1C` [Example 3, (2S,6R,11R)-3-(Cyclopropylmethyl)-8-(2,5,8,11,14,17,20-heptaoxadocosan-22-ylamino)-6,11-dimethyl-3,4,5,6-tetrahydro-2,6-methano-3-benzazocin-1 (2H)-One], the inhibition at 10 µM in test [1] came out at 80.6%.

As for `COCCOCCOCCOc1ccc2c(c1)[C@]1(C)CCN(CC3CC3)[C@H](C2=O)[C@@H]1C` [Example 4, (2S,6R,11R)-3-(Cyclopropylmethyl)-8-{2-[2-(2-methoxyethoxy)ethoxy]ethoxy}-6,11-dimethyl-3,4,5,6-tetrahydro-2,6-methano-3-benzazocin-1(2H)-One], the “AAW % Efficacy” value in test [2] (oral, 200 mg/kg) was determined as 3.8%; in test [2] (subcutaneous, 3 mg/kg) it was 0.0%; in test [2] (subcutaneous, 10 mg/kg) it was 39.7%; in test [2] (subcutaneous, 30 mg/kg), 100.0%. For the same compound, the inhibition at 10 µM in test [1] is 89.2%.

As for `COCCOCCOCCOCCOCCOCCOCCOc1ccc2c(c1)[C@]1(C)CCN(CC3CC3)[C@H](C2=O)[C@@H]1C` [Example 6, (2S,6R,11R)-3-(Cyclopropylmethyl)-8-(2,5,8,11,14,17,20-heptaoxadocosan-22-yloxy)-6,11-dimethyl-3,4,5,6-tetrahydro-2,6-methano-3-benzazocin-1(2H)-One], the inhibition at 10 µM in test [1] worked out at 48.6%.

As usually defined, the EC50 is the concentration that produces a half-maximal response. Read a low EC50 as an effect from little substance. As usually defined, the Ki is the equilibrium dissociation constant of an inhibitor or competing ligand from its target. As to `COCCOCCOCCOCCOCCO[C@@H]1c2ccc(O)cc2[C@]2(C)CCN(CC3CC3)[C@H]1[C@@H]2C` [Example 25, (1R,2S,6R,11R)-1-(2,5,8,11,14-pentaoxahexadecan-16-yloxy)-3-(cyclopropylmethyl)-6,11-dimethyl-1,2,3,4,5,6-hexahydro-2,6-methanobenzo[d]azocin-8-ol], the 50% effective concentration (EC50) on MOR is 1210 nM. The Ki in test [1] (CHO-K1 membranes) was 3920 nM.

Take `C[C@H]1[C@H]2C(=O)c3ccc(O)cc3[C@]1(C)CCN2CC1CC1` [Ketazocine, (2S,6R,11R)-3-(cyclopropylmethyl)-8-hydroxy-6,11-dimethyl-3,4,5,6-tetrahydro-2,6-methanobenzo[d]azocin-1(2H)-one, reference compound]: the “AAW % Efficacy” value came out at 12.8% in test [2] (oral, 0.1 mg/kg); 34.5% in test [2] (oral, 1 mg/kg); 58.9% in test [2] (oral, 10 mg/kg); 100.0% in test [2] (oral, 100 mg/kg); 10.57% in test [2] (subcutaneous, 0.01 mg/kg); 50.03% in test [2] (subcutaneous, 0.1 mg/kg). For the same compound, the “AAW % Efficacy” value in test [2] (subcutaneous, 1 mg/kg) worked out at 100.00%. Also, the inhibition at 10 µM in test [1] stood at 99.2%.

Values taken from patent publication US10081602B2, “Opioid agonists and uses thereof” (Nektar Therapeutics, priority 2013, dated 2018).
